In patent publication US20040121994A1, “Novel amides that activate soluble guanylate cyclase” (priority 2002, published 2004):

Target: T1, soluble guanylate cyclase (sGC), α1 and β1 subunits of guanylate cyclase expressed in Sf9 cells (Homo sapiens, UniProt Q02108+Q02153)
T1 construct: made in house; host or cells: Sf9 insect cells (baculovirus co-infection)
T1 sequence (Q02108 1-690): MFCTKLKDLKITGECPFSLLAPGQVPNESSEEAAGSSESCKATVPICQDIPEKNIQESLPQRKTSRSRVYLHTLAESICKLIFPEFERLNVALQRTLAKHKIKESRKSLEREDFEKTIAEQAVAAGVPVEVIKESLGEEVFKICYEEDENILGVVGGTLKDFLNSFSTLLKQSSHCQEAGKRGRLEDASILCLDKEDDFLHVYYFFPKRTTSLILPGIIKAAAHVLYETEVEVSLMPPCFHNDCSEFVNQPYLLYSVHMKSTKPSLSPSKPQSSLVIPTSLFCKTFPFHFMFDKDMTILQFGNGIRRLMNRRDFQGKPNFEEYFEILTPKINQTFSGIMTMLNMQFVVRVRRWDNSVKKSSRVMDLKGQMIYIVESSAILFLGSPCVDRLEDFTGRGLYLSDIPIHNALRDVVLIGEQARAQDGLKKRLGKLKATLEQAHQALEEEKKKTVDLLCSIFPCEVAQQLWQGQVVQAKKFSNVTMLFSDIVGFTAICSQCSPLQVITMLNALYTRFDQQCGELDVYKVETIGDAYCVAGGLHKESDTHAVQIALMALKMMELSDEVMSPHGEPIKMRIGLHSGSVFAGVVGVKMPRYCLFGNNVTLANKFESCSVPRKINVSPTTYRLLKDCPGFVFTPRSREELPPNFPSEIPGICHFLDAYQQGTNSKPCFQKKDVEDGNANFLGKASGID
T1 sequence (Q02153 1-619): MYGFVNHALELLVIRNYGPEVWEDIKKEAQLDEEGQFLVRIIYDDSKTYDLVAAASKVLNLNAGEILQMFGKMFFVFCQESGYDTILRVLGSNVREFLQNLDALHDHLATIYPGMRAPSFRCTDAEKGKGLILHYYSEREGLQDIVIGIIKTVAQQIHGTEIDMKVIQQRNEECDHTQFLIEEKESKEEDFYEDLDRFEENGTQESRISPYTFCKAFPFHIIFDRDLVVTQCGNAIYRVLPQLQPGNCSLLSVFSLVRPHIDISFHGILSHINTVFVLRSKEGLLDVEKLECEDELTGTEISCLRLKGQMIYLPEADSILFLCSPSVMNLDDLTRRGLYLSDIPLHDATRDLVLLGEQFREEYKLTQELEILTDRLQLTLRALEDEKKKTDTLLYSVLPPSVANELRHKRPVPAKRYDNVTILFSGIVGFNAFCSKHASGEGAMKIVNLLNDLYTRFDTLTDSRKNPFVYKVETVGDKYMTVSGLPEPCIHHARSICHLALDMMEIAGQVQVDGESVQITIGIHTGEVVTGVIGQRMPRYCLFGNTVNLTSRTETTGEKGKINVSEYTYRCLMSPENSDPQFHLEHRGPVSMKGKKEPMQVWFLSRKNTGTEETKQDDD
Assay: Guanylate cyclase assay (formation of cyclic GMP from GTP)
Type: biochemical
Conditions: for Mean activation at 100 μM: (activity of compound at 100 μM with 1 μM SNP)−(activity of compound at 100 μM)/(activity of SNP at 1 μM)−(basal activity of sGC); for Mean efficacy of compound combined with 1 μM of SNP, [%]: compound at 100 μM with 1 μM sodium nitro prusside (SNP); for Mean efficacy of compound combined with 1 μM of SNP, [%] / Emax at 100 µM: normalized with the activity of 100 μM YC-1 (without SNP) as 100%; for Emax at 100 µM: compound at 100 μM without SNP, read-out: Mean basal efficacy of compound alone at 100 μM, [%]
Protocol: Sf9 cells were cultured in Sf-90011 medium supplemented with 10% (v/v) fetal calf serum at 28° C. to give a count of 6×10^5 cells/ml. The cells were then infected with a mixture of the virus stocks for the α1 and β1 subunits of guanylate cyclase at a multiplicity of infection of 0.1 pfu/cell. The cells were harvested 72 hours after infection and were pelleted by centrifugation. The resulting cell pellets were homogenized with Polytron homogenizer in 3 volumes of 20 mM Tris-HCl (pH 7.6) containing 1 mM EDTA, 5 mM dithiothreitol, 90 mM NaCl, 10% glycerol, and protease inhibitors mix (Roche Molecular Biochemicals). The homogenate was centrifuged at 50,000×g for 60 minutes and the supernatant was aliquotted and stored at −80° C.
Compounds of the present invention were dissolved in DMSO to make 100 mM and saved as stocks at −20° C. When compounds were tested, prepared 10-fold concentrated solutions with 10% DMSO. Then added 10 μl of 10-fold concentrated compound solutions to the reaction mixture of total 100 μl.
Guanylate cyclase activity was measured by the formation of cyclic GMP from GTP in a total volume of 100 μl. Guanylate cyclase-expressed Sf9 cell high-speed supernatant was used as an enzyme source for the assay. The reaction mixture containing 0.1 μl enzyme (Sf9 high-speed sup), compound solution, 50 mM Tris-HCl (pH 7.6), 4 mM MgCl2, 0.5 mM IBMX, 15 mM creatine phosphate, 20 μg creatine phosphokinase, 0.1% BSA and 1 mM GTP was incubated at 37° C. for 15 minutes. After the reaction, 0.9 ml of 50 mM sodium acetate buffer (pH 5.8) was added followed by boiling for 3 minutes to stop the reaction. The solution was centrifuged at 3000 rpm for 15 minutes at room temperature and cyclic GMP in 20 μl of the resulting supernatant was measured according to the protocol of Amersham cyclic GMP enzymeimmunoassay system (purchased from Sigma, catalogue number RPN 226).
Compounds of the present invention were tested at 100 μM with and without 1 μM sodium nitro prusside (SNP). 1-Benzyl-3-hydroxymethyl-2-furylindazole (YC-1) was included as a standard for each assay. The data was normalized with the activity of 100 μM YC-1 (without SNP) as 100%. Mean basal efficacy, in Table 1, was expressed as a percentage of 100 μM YC-1 (without SNP).
The mean activation, in Table 1, was calculated based on the formula: (activity of compound of the present invention at 100 μM with 1 μM SNP)−(activity of compound of the present invention at 100 μM)/(activity of SNP at 1 μM)−(basal activity of sGC).

| Structure (SMILES) | Mean activation at 100 μM | Mean efficacy of compound combined with 1 μM of SNP, [%] | Emax at 100 µM |
| --- | --- | --- | --- |
| CC(C)CCSc1ccccc1/C=C/C(=O)NC1CCC(O)CC1 (centres unmarked) [Example 55, (2E)-N-(4-hydroxycyclohexyl)-3-{2-[(3-methylbutyl)thio]phenyl}acrylamide] | 5.3 | 213% | 143% |
| CNCCCCNC(=O)CCc1ccccc1Sc1ccc(Cl)cc1 [Example 13, 3-{2-[(4-chlorophenyl)thio]phenyl}-N-[4-(methylamino)butyl]propanamide] | 2.4 | 25% | 4% |
| CC(C)CCSc1ccccc1/C=C/C(=O)NCCCCCO [Example 59, (2E)-N-(5-hydroxypentyl)-3-{2-[(3-methylbutyl)thio]phenyl}acrylamide] | 8.4 | 221% | 162% |
| COc1cccc(Sc2ccccc2/C=C/C(=O)NC2CCCCC2O)c1 (centres unmarked) [Example 48, (2E)-N-(2-hydroxycyclohexyl)-3-{2-[(3-methoxyphenyl)thio]phenyl}acrylamide] | 4.6 | 102% | 20% |
| COc1ccc(Sc2ccccc2/C=C/C(=O)NC2CCCCC2O)cc1 (centres unmarked) [Example 49, (2E)-N-(2-hydroxycyclohexyl)-3-{2-[(4-methoxyphenyl)thio]phenyl}acrylamide] | 3.7 | 79% | 15% |
| Cc1ccc(Sc2ncccc2/C=C/C(=O)NC2CCC(O)CC2)cc1 (centres unmarked) [Example 15, (2E)-N-(4-hydroxycyclohexyl)-3-{2-[(4-methylphenyl)thio]-3-pyridinyl}acrylamide] | 4.7 | 204% | 126% |
| O=C(CCc1ccccc1Sc1ccc(Cl)cc1)NCCCCO [Example 1, 3-{2-[(4-chlorophenyl)thio]phenyl}-N-(4-hydroxybutyl)propanamide] | 2.4 | 25% | 4% |
| O=C(/C=C/c1cccnc1Sc1ccc(Br)cc1)NC1CCC(O)CC1 (centres unmarked) [Example 18, (2E)-3-{2-[(4-bromophenyl)thio]-3-pyridinyl}-N-(4-hydroxycyclohexyl)acrylamide] |  | 113% | 43% |
| O=C(/C=C/c1ccccc1SC1CCCCC1)NC1CCCCC1O (centres unmarked) [Example 23, (2E)-3-[2-(cyclohexylthio)phenyl]-N-(2-hydroxycyclohexyl)acrylamide] | 2.7 | 187% | 174% |
| CCCCNC(=O)/C=C/c1ccccc1Sc1ccc(Cl)cc1 [Example 33, (2E)-N-butyl-3-{2-[(4-chlorophenyl)thio]phenyl}acrylamide] | 6.9 | 38% | 7% |
| CC(O)CCCNC(=O)CCc1ccccc1Sc1ccc(Cl)cc1 (centres unmarked) [Example 9, 3-{2-[(4-chlorophenyl)thio]phenyl}-N-(4-hydroxypentyl)propanamide] | 4.0 | 22% | 4% |
| Cc1ccc(Sc2ccccc2/C=C/C(=O)NC2CCC(O)CC2)cc1 (centres unmarked) [Example 42, (2E)-N-(4-hydroxycyclohexyl)-3-{2-[(4-methylphenyl)thio]phenyl}acrylamide] | 4.8 | 58% | 14% |
| CC(CC(=O)NCCc1ccncc1)c1ccccc1Sc1ccc(Cl)cc1 (centres unmarked) [Example 11, 3-{2-[(4-chlorophenyl)thio]phenyl}-N-[2-(4-pyridinyl)ethyl]butanamide] | 2.8 | 6% | 1% |
| O=C(CCc1cc(F)ccc1Sc1ccc(Cl)cc1)NCCCCO [Example 8, 3-{2-[(4-chlorophenyl)thio]-5-fluorophenyl}-N-(4-hydroxybutyl)propanamide] | 3.1 | 16% | 0% |
| COc1ccc(Sc2ccccc2/C=C/C(=O)NC2CCC(O)CC2)cc1 (centres unmarked) [Example 51, (2E)-N-(4-hydroxycyclohexyl)-3-{2-[(4-methoxyphenyl)thio]phenyl}acrylamide] | 7.2 | 258% | 119% |
| CNCCCCCNC(=O)CCc1ccccc1Sc1ccc(Cl)cc1 [Example 14, 3-{2-[(4-chlorophenyl)thio]phenyl}-N-[5-(methylamino)pentyl]propanamide] | 4.4 | 124% | 30% |
| O=C(/C=C/c1ccccc1SC1CCCCC1)NC1CCC(O)CC1 (centres unmarked) [Example 26, (2E)-3-[2-(cyclohexylthio)phenyl]-N-(4-hydroxycyclohexyl)acrylamide] | 7.9 | 506% | 353% |
| CS(=O)(=O)NCCCCNC(=O)CCc1ccccc1Sc1ccc(Cl)cc1 [Example 6, 3-{2-[(4-chlorophenyl)thio]phenyl}-N-{4-[(methylsulfonyl)amino]butyl}propanamide] | 2.7 | 11% | 2% |
| O=C(/C=C/c1ccccc1SC1CCCC1)NC1CCCCC1O (centres unmarked) [Example 22, (2E)-3-[2-(cyclopentylthio)phenyl]-N-(2-hydroxycyclohexyl)acrylamide] | 3.9 | 169% | 158% |
| CCCCCSc1ccccc1/C=C/C(=O)NC1CCC(O)CC1 (centres unmarked) [Example 27, (2E)-N-(4-hydroxycyclohexyl)-3-[2-(pentylthio)phenyl]acrylamide] | 8.3 | 278% | 115% |
